In patent publication US9187467B2, “2-phenyl benzothiazole linked imidazole compounds as potential anticancer agents and process for the preparation thereof” (Council of Scientific and Industrial Research, priority 2012, dated 2015):

Tests used:
RPMI-8226 = test: SRB anticancer assay, leukemia; type: cell-based; conditions: Homo sapiens, RPMI-8226, 48 h
HCT-15 = test: SRB anticancer assay, colon; type: cell-based, human; conditions: Homo sapiens, HCT-15, 48 h
HOP-92 = test: SRB anticancer assay, non-small lung; type: cell-based, human; design: Log10GI50: unit not given here; conditions: for Log10GI50: HOP-92, present compounds; for GI50: Homo sapiens, HOP-92, 48 h
CAKI-1 = test: SRB anticancer assay, renal; type: cell-based, human; design: Log10GI50: unit not given here; conditions: for GI50: Homo sapiens, CAKI-1, 48 h; for Log10GI50: CAKI-1, present compounds
MDA-MB-468 = test: SRB anticancer assay, breast; type: cell-based, human; design: unit not given here; conditions: present compounds
SW-620 = test: SRB anticancer assay, colon; type: cell-based, human; design: Log10GI50: unit not given here; conditions: for GI50: Homo sapiens, SW-620, 48 h; for Log10GI50: SW-620, present compounds
HOP-62 = test: SRB anticancer assay, non-small lung; type: cell-based, human; conditions: for Log10GI50: HOP-62, present compounds; for GI50: Homo sapiens, HOP-62, 48 h
MDA-MB-435 = test: SRB anticancer assay, melanoma; type: cell-based, human; design: Log10GI50: unit not given here; conditions: for GI50: Homo sapiens, MDA-MB-435, 48 h; for Log10GI50: MDA-MB-435, present compounds
MOLT-4 = test: SRB anticancer assay, leukemia; type: cell-based, human; design: Log10GI50: unit not given here; conditions: for GI50: Homo sapiens, MOLT-4, 48 h; for Log10GI50: MOLT, present compounds
HCC-2998 = test: SRB anticancer assay, colon; type: cell-based, human; conditions: Homo sapiens; HCC-2998, 48 h
M14 = test: SRB anticancer assay, melanoma; type: cell-based, human; design: Log10GI50: unit not given here; conditions: for GI50: Homo sapiens, M14, 48 h; for Log10GI50: M14, present compounds
COLO 205 = test: SRB anticancer assay, colon; type: cell-based, human; conditions: Homo sapiens, COLO 205, 48 h
EKVX = test: SRB anticancer assay, non-small lung; type: cell-based, human; design: Log10GI50: unit not given here; conditions: for GI50: Homo sapiens, 48 h; for Log10GI50: present compounds
caspase-9 = test: Western blot, apoptosis proteins in MCF-7 cells; type: cell-based; conditions: 2 μM, 24h
Description: (§1) FIG. 3 represents effect of compound 7d and 7h on p21 and caspase-9. MCF-7 cells were treated with 2 μM concentration of compounds 7d and 7h for 24h. The cell lysates were collected and probed with anti-bodies against p21 and caspase-9. beta-actin was used as loading control. Con: Control (untreated).
(§2) Activation of tumor suppressor gene p21 was the important regulator of apoptotic pathway caused by various stimuli. In many instances the apoptotic cell death is mediated by caspases, thus the possible involvement of p21 and caspase protein and its role in apoptosis has been investigated. MCF-7 cells were treated with 7d, 7h (the effective compounds of cell cycle arrest) 21a, 21d and CA-4 at 2 μM concentration.

p21 = test: Western blot, apoptosis proteins in MCF-7 cells; type: cell-based; conditions: 2 μM, 24h
Description: as §1, §2

[1] = system: microtubule network of MCF-7 cells; test: Effect on microtubule network; type: cell-based; conditions: 2 μM
Description: FIG. 2 represents effect of compound 7d, the effective compound on the microtubule network of MCF-7 cells untreated cells (Con), nocodazole (Noc) and 7d at 2 μM concentration. Microtubules and unassembled tubulin are shown in green and DNA was stained with nuclear dye DAPI (4,6-diamidino-2-phenylindole) is shown in blue colour.
Inhibition of tubulin is associated with G2/M cell cycle arrest by interrupting chromosome segregation and affecting mitotic spindle formation. […] It was considered of interest to understand the mechanism of anti-cancer activity of compound 7d with regard to interaction with microtubule system. MCF-7 breast cancer cells were treated with Nocodazole (Noc), 7d compounds at 2 μM concentration.

COc1cc(-c2cncn2-c2ccc(-c3nc4ccc(F)cc4s3)cc2)ccc1F [Compound 4c, 6-Fluoro-2-(4-(5-(4-fluoro-3-methoxyphenyl)-1H-imidazol-1-yl)phenyl)benzo[d]thiazole]
GI50 (RPMI-8226): 4.11 µM | GI50 (HCT-15): 82.3 µM | Log10GI50 (HOP-92): −5.26 | GI50 (HOP-92): 5.47 µM | GI50 (CAKI-1): > 100 µM | Log10GI50 (MDA-MB-468): −4.96 | GI50 (SW-620): 7.81 µM | Log10GI50 (SW-620): −5.11 | Log10GI50 (HOP-62): −4.39 log10 M | GI50 (HOP-62): 40.7 µM | GI50 (MDA-MB-435): 17.1 µM | Log10GI50 (MDA-MB-435): −4.77 | GI50 (MOLT-4): 3.41 µM | Log10GI50 (MOLT-4): −5.47 | GI50 (HCC-2998): > 100 µM | GI50 (M14): 33.4 µM | Log10GI50 (M14): −4.48 | GI50 (COLO 205): 56.8 µM

COc1cc(OC)cc(-c2cncn2-c2ccc(-c3nc4cc(OC)cc(OC)c4s3)cc2)c1 [Compound 6d, 2-(4-(5-(3,5-Dimethoxyphenyl)-1H-imidazol-1-yl)phenyl)-5,7-dimethoxybenzo[d]thiazole]
GI50 (CAKI-1): 2.13 µM | GI50 (HOP-62): 6.65 µM | GI50 (MDA-MB-435): 1.53 µM | GI50 (HCC-2998): > 100 µM

COc1cc(OC)c2sc(-c3ccc(-n4cncc4-c4ccc(OC)c(OC)c4)cc3)nc2c1 [Compound 6e, 2-(4-(5-(3,4-Dimethoxyphenyl)-1H-imidazol-1-yl)phenyl)-5,7-dimethoxybenzo[d]thiazole]
GI50 (RPMI-8226): > 100 µM | GI50 (HCT-15): > 100 µM | GI50 (SW-620): > 100 µM | GI50 (HOP-62): 35.5 µM | GI50 (HCC-2998): > 100 µM | GI50 (M14): > 100 µM

COc1cc(OC)c2sc(-c3ccc(-n4cncc4-c4cc(OC)c(OC)c(OC)c4)cc3)nc2c1 [Compound 6f, 5,7-Dimethoxy-2-(4-(5-(3,4,5-trimethoxyphenyl)-1H-imidazol-1-yl)phenyl)benzo[d]thiazole]
GI50 (RPMI-8226): 5.39 µM | GI50 (HCT-15): 5.48 µM | GI50 (SW-620): 5.96 µM | GI50 (HOP-62): 75.9 µM | GI50 (MDA-MB-435): 3.41 µM | GI50 (MOLT-4): 4.24 µM | GI50 (EKVX): 5.09 µM | GI50 (HCC-2998): > 100 µM | GI50 (M14): 7.91 µM | GI50 (COLO 205): 4.51 µM

COc1cc(OC)cc(-c2cncn2-c2ccc(-c3nc4cc(OC)c(OC)c(OC)c4s3)cc2)c1 [Compound 7d, 2-(4-(5-(3,5-Dimethoxyphenyl)-1H-imidazol-1-yl)phenyl)-5,6,7-trimethoxybenzo[d]thiazole]
GI50 (RPMI-8226): 2.9 µM | GI50 (HCT-15): 5.72 µM | Log10GI50 (HOP-92): >−4.0 | GI50 (HOP-92): > 100 µM | Log10GI50 (CAKI-1): −5.42 | GI50 (CAKI-1): 3.79 µM | Log10GI50 (MDA-MB-468): −4.97 | GI50 (SW-620): 13.7 µM | Log10GI50 (SW-620): −4.86 | Log10GI50 (HOP-62): −4.58 log10 M | GI50 (HOP-62): 26.4 µM | GI50 (MDA-MB-435): 6.07 µM | Log10GI50 (MDA-MB-435): −5.22 | GI50 (MOLT-4): 4.11 µM | Log10GI50 (MOLT-4): −5.39 | GI50 (EKVX): 1.87 µM | Log10GI50 (EKVX): −5.73 | GI50 (HCC-2998): > 100 µM | GI50 (COLO 205): 3.85 µM | caspase-9 protein (Western blot) (caspase-9): increase | p21 protein (Western blot) (p21): increase | microtubulin organization [1]: disrupted microtubulin organization

COc1cc2nc(-c3ccc(-n4cncc4-c4ccc(N)cc4)cc3)sc2c(OC)c1OC [Compound 7h, 4-(1-(4-(5,6,7-Trimethoxybenzo[d]thiazol-2-yl)phenyl)-1H-imidazol-5-yl)benzenamine]
Log10GI50 (HOP-92): −6.35 | GI50 (HOP-92): 0.446 µM | Log10GI50 (CAKI-1): −5.85 | GI50 (CAKI-1): 1.41 µM | Log10GI50 (MDA-MB-468): −5.74 | GI50 (EKVX): 2.49 µM | Log10GI50 (EKVX): −5.60 | GI50 (M14): 2.1 µM | Log10GI50 (M14): −5.68 | caspase-9 protein (Western blot) (caspase-9): increase | p21 protein (Western blot) (p21): increase

COc1ccc(-c2cncn2-c2ccc(-c3nc4cc(OC)c(OC)c(OC)c4s3)cc2)cc1N [Compound 7j, 2-Methoxy-5-(1-(4-(5,6,7-trimethoxybenzo[d]thiazol-2-yl)phenyl)-1H-imidazol-5-yl)benzeneamine]
GI50 (HCT-15): 4.02 µM | Log10GI50 (CAKI-1): −5.32 | GI50 (CAKI-1): 4.82 µM | Log10GI50 (MDA-MB-468): −5.07 | GI50 (SW-620): 6.21 µM | Log10GI50 (SW-620): −5.21 | GI50 (MDA-MB-435): 3.13 µM | Log10GI50 (MDA-MB-435): −5.50 | GI50 (MOLT-4): 4 µM | Log10GI50 (MOLT-4): −5.40 | GI50 (EKVX): 7.54 µM | Log10GI50 (EKVX): −5.12 | GI50 (M14): 5.91 µM | Log10GI50 (M14): −5.23 | GI50 (COLO 205): 2.94 µM
